Assay results taken from PubChem BioAssay AID328 (DTP/NCI, 2004).
Values joined by “and” are separate entries in the source; they are usually repeats but may differ in a detail not shown here. Equal values may be shown once. Inconclusive results and toxic doses are left out.

System: BDF1 mice, P388 leukemia ip, median survival T/C
Assay: NCI In Vivo Anticancer Drug Screen. Data for tumor model P388 Leukemia (intraperitoneal) in B6D2F1 (BDF1) mice
Settings: endpoint: median survival time, higher = longer survival
Outline: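 Steps: implant the tumour, treat one group with compound and another with vehicle, record survival, then divide treated by control.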

[1] = dose: 25.0 mg/kg/injection, schedule: Q01DX009 (ip), vehicle: Klucel (hydroxypropylcellulose) (HPC)
[2] = dose: 25.0 mg/kg/injection, schedule: Q04DX003 (ip), vehicle: Klucel (hydroxypropylcellulose) (HPC)
[3] = dose: 50.0 mg/kg/injection, schedule: Q04DX003 (ip), vehicle: Klucel (hydroxypropylcellulose) (HPC)
[4] = dose: 100.0 mg/kg/injection, schedule: Q01DX009 (ip), vehicle: Klucel (hydroxypropylcellulose) (HPC)
[5] = dose: 100.0 mg/kg/injection, schedule: Q04DX003 (ip), vehicle: Klucel (hydroxypropylcellulose) (HPC)
[6] = dose: 200.0 mg/kg/injection, schedule: Q01DX009 (ip), vehicle: Klucel (hydroxypropylcellulose) (HPC)
[7] = dose: 200.0 mg/kg/injection, schedule: Q04DX003 (ip), vehicle: Klucel (hydroxypropylcellulose) (HPC)
[8] = dose: 400.0 mg/kg/injection, schedule: Q04DX003 (ip), vehicle: Klucel (hydroxypropylcellulose) (HPC)
[9] = dose: 50.0 mg/kg/injection, schedule: Q01DX009 (ip), vehicle: Klucel (hydroxypropylcellulose) (HPC)
[10] = dose: 100.0 mg/kg/injection, schedule: Q04DX003 (ip), vehicle: saline with Tween-80
[11] = dose: 200.0 mg/kg/injection, schedule: Q04DX003 (ip), vehicle: saline with Tween-80
[12] = dose: 400.0 mg/kg/injection, schedule: Q04DX003 (ip), vehicle: saline with Tween-80
[13] = dose: 100.0 mg/kg/injection, schedule: Q01DX009 (ip), vehicle: saline with Tween-80
[14] = dose: 400.0 mg/kg/injection, schedule: Q01DX009 (ip), vehicle: saline with Tween-80
[15] = dose: 100.0 mg/kg/injection, schedule: Q04DX003 (ip), vehicle: saline
[16] = dose: 50.0 mg/kg/injection, schedule: Q01DX009 (ip), vehicle: saline with Tween-80
[17] = dose: 200.0 mg/kg/injection, schedule: Q01DX009 (ip), vehicle: saline with Tween-80

Compound: O=Nc1ccc(O)c2ncccc12
- T/C (dose: 50.0 mg/kg/injection, schedule: Q01DX001 (ip), vehicle: Klucel (hydroxypropylcellulose) (HPC)): 118 % of control

Compound: c1ccc(OCc2ccc(COc3ccccc3)cc2)cc1
- T/C (dose: 6.25 mg/kg/injection, schedule: Q01DX009 (ip), vehicle: Klucel (hydroxypropylcellulose) (HPC)): 96 % of control
- T/C (dose: 12.5 mg/kg/injection, schedule: Q01DX009 (ip), vehicle: Klucel (hydroxypropylcellulose) (HPC)): 96 % of control
- T/C [1]: 92 % of control and 96 % of control
- T/C [2]: 100 % of control
- T/C [3]: 104 % of control
- T/C [4]: 92 % of control
- T/C [5]: 100 % of control

Compound: CN(C)c1ccc(Cc2ccc(N(C)C)nc2)cn1
- T/C [4]: 100 % of control
- T/C [5]: 95 % of control
- T/C [6]: 110 % of control
- T/C [7]: 100 % of control
- T/C (dose: 400.0 mg/kg/injection, schedule: Q01DX009 (ip), vehicle: Klucel (hydroxypropylcellulose) (HPC)): 100 % of control
- T/C [8]: 95 % of control

Compound: CO/N=C/c1ccc([N+](=O)[O-])s1
- T/C (dose: 12.0 mg/kg/injection, schedule: Q04DX003 (ip), vehicle: Klucel (hydroxypropylcellulose) (HPC)): 118 % of control
- T/C [1]: 100 % of control
- T/C [2]: 113 % of control
- T/C [9]: 108 % of control
- T/C [3]: 104 % of control
- T/C [4]: 108 % of control

Compound: C/C(=C\c1ccc2c(c1)OCO2)[N+](=O)[O-]
- T/C (dose: 85.0 mg/kg/injection, schedule: Q04DX003 (ip), vehicle: Klucel (hydroxypropylcellulose) (HPC)): 118 % of control
- T/C [5]: 110 % of control
- T/C (dose: 135.0 mg/kg/injection, schedule: Q04DX003 (ip), vehicle: Klucel (hydroxypropylcellulose) (HPC)): 109 % of control
- T/C [7]: 100 % of control and 109 % of control

Compound: CCOC(=O)C(=CN1CCCCC1)C(=O)OCC
- T/C [10]: 95 % of control
- T/C [11]: 100 % of control
- T/C [12]: 100 % of control

Compound: CCCCNC(c1ccc(C=NC(CC)(CO)CO)cc1)C(Br)(Br)Br (stereo not given)
- T/C (dose: 50.0 mg/kg/injection, schedule: Q04DX003 (ip), vehicle: other): 100 % of control
- T/C (dose: 100.0 mg/kg/injection, schedule: Q04DX003 (ip), vehicle: other): 100 % of control
- T/C (dose: 200.0 mg/kg/injection, schedule: Q04DX003 (ip), vehicle: other): 104 % of control

Compound: O=C(CBr)c1cccc(OC(=O)c2ccccc2)c1
- T/C [2]: 96 % of control
- T/C [3]: 88 % of control

Compound: CC(C)N(C(C)C)C(C)CCNc1c2ccccc2nc2cc(Cl)ccc12 (stereo not given)
- T/C (dose: 6.0 mg/kg/injection, schedule: Q01DX009 (ip), vehicle: saline): 100 % of control
- T/C (dose: 12.0 mg/kg/injection, schedule: Q01DX009 (ip), vehicle: saline): 105 % of control
- T/C (dose: 24.0 mg/kg/injection, schedule: Q01DX009 (ip), vehicle: saline): 100 % of control

Compound: C=C1CC2(CC(C)(C)CC(C)(C)C2)OC1=O
- T/C [10]: 97 % of control
- T/C [11]: 112 % of control
- T/C [12]: 106 % of control

Compound: COc1ccc(C(CCl)(CCl)c2ccc(OC)c(C)c2)cc1C
- T/C [13]: 104 % of control
- T/C [10]: 91 % of control
- T/C [11]: 87 % of control
- T/C [14]: 100 % of control
- T/C [12]: 100 % of control

Compound: Nc1nc(N)c2cc(CNc3ccc(C(=O)NC(C(=O)O)C(=O)O)cc3)ccc2n1
- T/C (dose: 0.15 mg/kg/injection, schedule: Q01DX009 (ip), vehicle: saline): 163 % of control

Compound: O=C(O)C(O)C(=O)O
- T/C [15]: 95 % of control

Compound: Cc1ccc(S(=O)(=O)N(C)c2cc(Cl)c(C(N)=O)c(Cl)c2)cc1
- T/C (dose: 6.25 mg/kg/injection, schedule: Q01DX001 (ip), vehicle: saline sonified): 95 % of control
- T/C (dose: 12.5 mg/kg/injection, schedule: Q01DX001 (ip), vehicle: saline sonified): 100 % of control
- T/C (dose: 25.0 mg/kg/injection, schedule: Q01DX001 (ip), vehicle: saline sonified): 100 % of control
- T/C [16]: 112 % of control
- T/C [13]: 95 % of control
- T/C [10]: 105 % of control
- T/C [17]: 114 % of control
- T/C [11]: 97 % of control
- T/C [14]: 95 % of control
- T/C [12]: 106 % of control

Compound: CC(=O)N(C)C
- T/C (dose: 300.0 mg/kg/injection, schedule: Q01DX010 (ip), vehicle: saline): 104 % of control
- T/C (dose: 600.0 mg/kg/injection, schedule: Q01DX010 (ip), vehicle: saline): 104 % of control
- T/C (dose: 1200.0 mg/kg/injection, schedule: Q01DX010 (ip), vehicle: saline): 119 % of control
- T/C (dose: 2400.0 mg/kg/injection, schedule: Q01DX010 (ip), vehicle: saline): 119 % of control
- T/C (dose: 3600.0 mg/kg/injection, schedule: Q01DX010 (ip), vehicle: saline): 168 % of control

Compound: C[N+](C)(C)C.N=C=O.N=C=O.N=C=O.N=C=O.[Co+2]
- T/C (dose: 2.5 mg/kg/injection, schedule: Q01DX009 (ip), vehicle: saline): 88 % of control
- T/C (dose: 5.0 mg/kg/injection, schedule: Q01DX001 (ip), vehicle: other): 86 % of control
- T/C (dose: 5.0 mg/kg/injection, schedule: Q01DX009 (ip), vehicle: saline with Tween-80): 100 % of control
- T/C (dose: 5.0 mg/kg/injection, schedule: Q04DX003 (ip), vehicle: saline with Tween-80): 95 % of control
- T/C (dose: 10.0 mg/kg/injection, schedule: Q01DX001 (ip), vehicle: other): 95 % of control
- T/C (dose: 10.0 mg/kg/injection, schedule: Q01DX009 (ip), vehicle: saline with Tween-80): 115 % of control and 116 % of control
- T/C (dose: 10.0 mg/kg/injection, schedule: Q04DX003 (ip), vehicle: saline with Tween-80): 109 % of control
- T/C (dose: 20.0 mg/kg/injection, schedule: Q01DX001 (ip), vehicle: other): 100 % of control
- T/C (dose: 20.0 mg/kg/injection, schedule: Q01DX009 (ip), vehicle: saline with Tween-80): 95 % of control and 115 % of control
- T/C (dose: 20.0 mg/kg/injection, schedule: Q01DX009 (ip), vehicle: saline): 95 % of control
- T/C (dose: 20.0 mg/kg/injection, schedule: Q04DX003 (ip), vehicle: saline with Tween-80): 95 % of control
- T/C (dose: 40.0 mg/kg/injection, schedule: Q01DX009 (ip), vehicle: saline): 117 % of control

Compound: Cc1ccc(C(=O)C(Br)C(Br)c2ccccc2)cc1 (stereo not given)
- T/C [10]: 95 % of control
- T/C [11]: 94 % of control
- T/C [12]: 103 % of control

Compound: ClC1=C(Cl)C2(Cl)C3COCC3C1(Cl)C2(Cl)Cl (stereo not given)
- T/C (dose: 100.0 mg/kg/injection, schedule: Q01DX001 (ip), vehicle: Klucel (hydroxypropylcellulose) (HPC)): 113 % of control
- T/C [5]: 104 % of control
- T/C (dose: 200.0 mg/kg/injection, schedule: Q01DX001 (ip), vehicle: Klucel (hydroxypropylcellulose) (HPC)): 113 % of control
- T/C [7]: 100 % of control and 108 % of control
- T/C (dose: 400.0 mg/kg/injection, schedule: Q01DX001 (ip), vehicle: Klucel (hydroxypropylcellulose) (HPC)): 104 % of control
- T/C [8]: 100 % of control

Compound: OC(c1ccc(Cl)cc1)(c1ccc(Cl)cc1)C(F)(F)F
- T/C (dose: 100.0 mg/kg/injection, schedule: Q01DX009 (sc), vehicle: olive oil, sesame oil, peanut oil): 96 % of control
- T/C (dose: 100.0 mg/kg/injection, schedule: Q04DX003 (sc), vehicle: olive oil, sesame oil, peanut oil): 109 % of control
- T/C (dose: 200.0 mg/kg/injection, schedule: Q04DX003 (sc), vehicle: olive oil, sesame oil, peanut oil): 100 % of control
- T/C (dose: 400.0 mg/kg/injection, schedule: Q04DX003 (sc), vehicle: olive oil, sesame oil, peanut oil): 95 % of control

Compound: O=C(NNC(=O)OCc1ccccc1)OCc1ccccc1
- T/C [9]: 96 % of control
- T/C [4]: 96 % of control
- T/C [5]: 90 % of control
- T/C [6]: 92 % of control
- T/C [7]: 109 % of control

Compound: CN/N=C/c1cccnc1
- T/C (dose: 12.5 mg/kg/injection, schedule: Q01DX009 (ip), vehicle: saline): 97 % of control
- T/C (dose: 25.0 mg/kg/injection, schedule: Q01DX009 (ip), vehicle: saline): 95 % of control
- T/C [16]: 105 % of control
- T/C (dose: 50.0 mg/kg/injection, schedule: Q01DX009 (ip), vehicle: saline): 95 % of control

Compound: CC1CCCCC1O (stereo not given)
- T/C [16]: 100 % of control and 109 % of control
- T/C [13]: 93 % of control and 109 % of control
- T/C [17]: 111 % of control and 95 % of control

Compound: CCOC(=O)CCOCOCCC(=O)OCC
- T/C [15]: 100 % of control
- T/C (dose: 200.0 mg/kg/injection, schedule: Q04DX003 (ip), vehicle: saline): 95 % of control
- T/C (dose: 400.0 mg/kg/injection, schedule: Q04DX003 (ip), vehicle: saline): 95 % of control
